Test results from patent publication US6518317B1, “Antiviral agents” (priority 1997, dated 2003).

Columns and labels:
[1] = tested on: carcinogenesis caused by a two-stage carcinogenesis on skin; test: Two-stage (DMBA/TPA) carcinogenesis on skin of mice; format: in vivo, mice of ICR strain; conditions: mouse, in vivo
Experimental: Hair on the back of mice of ICR strain (purchased from Nippon SLC; seven weeks age; female) was shaved and DMBA (dimethylbenzanthracene) as an initiator in a form of a solution in acetone was applied thereto at the dose of 50 μg/mouse.
Thus, FIG. 5 is a graph showing the anti-carcinogenic action of the cyclopentenone in which ordinate is a carcinogenic rate while abscissa is time (weeks). In the graph, open triangles, black triangles and open circles stand for a group treated with 2.5 mg of the cyclopentenone per mouse (12 mice in total), a group treated with 0.8 mg of the cyclopentenone per mouse (11 mice in total) and a control group (12 mice in total), respectively.

Ad5 dlX [an adenovirus] = test: Adenovirus hexon protein in HeLa cells treated with cyclopentenone before infection; format: cell-based; conditions: Examples 2-(2)~(6)
Experimental: After that, the cells were washed with the DMEM containing 5% of fetal bovine serum, then the DMEM containing 5% of fetal bovine serum which contained Ad5 dlX [an adenovirus; Saito, etal.; Journal ofVirology, volume 54, pages 711-719 (1985)] was added to the cells so that the cells were infected therewith and incubation was conducted for 20 hours. […] The medium was discarded, 1 ml of 10% trichloroacetic acid was added to each of the wells and the cells were recovered by a scraper.
Then SDS-PAGE and blotting of the treated cells obtained hereinabove were conducted by the method of Example 1 to detect the expression of hexon proteins of the adenovirus. Incidentally, anti-adenovirus hexon antibody (AB 1056; manufactured by Chemicon International Inc.) was used as the primary antibody.

[2] = tested on: heat shock protein of 70 kDa; test: Induction of heat shock protein of 70 kDa in HL-60 cells (SDS-PAGE and blotting); format: cell-based, human; conditions: HL-60 cells, as Table 1
Experimental: (1) An RPMI 1640 medium (5 ml) containing 10% of fetal bovine serum which contained 2×10^5 cells/ml of human promyelocytic leukemia cells HL-60 (ATCC CCL-240) was placed in each well of a six-well plate, incubated at 37° C. for 24 hours in the presence of 5% of CO2, then the cyclopentenone described in the referential example L was added thereto to make its final concentration 0, 10, 20, 30, 40, 50, or 100 μM and the incubation was further continued for eight hours more.
After completion of the incubation, cell numbers were counted and the cells were recovered by centrifugation and washed with phosphate-buffered saline (PBS) to prepare cyclopentenone-treated cells. In the meanwhile, cells which were heated at 45° C. for ten minutes followed by subjecting to the same incubation were prepared as well.
The cells treated as such were subjected to an SDS-polyacrylamid gel electrophoresis (SDS-PAGE) by a method mentioned in “Molecular Cloning” [Cold Spring Harbor Laboratory Press, (1989)]. The treated cells were suspended in an SDS-PAGE sample buffer to make the concentration 2.5×10^6 cells/ml, the resulting cell suspension was treated at 100° C. for ten minutes and each 5 μl thereof was applied to two sheets of SDS-PAGE gels (5% stacking gel; 10% separation gel) to conduct anelectrophoresis. One of the gels was Coomassie stained while another gel was subjected to a blotting to a polyvinylidene difluoride transfer membrane (Immobilon™, manufactured by Millipore, catalog no. IPVH000-10). The membrane was subjected to a blocking at 4° C. for one night with Block Ace (manufactured by Dainippon Pharmaceutical; catalog no. UK-B25).
The blocked membrane was made to react with monoclonal antibody HSP 72/73 (Ab-1) (manufactured by Oncogene Research Products, catalog no. HSP01) which would specifically react with heat-induced heat shock protein of 70 kDa and washed with TBS containing 0.05% of Tween 20 followed by further washing with TBS. After that, it was made to react with peroxidase-compounded secondary antibody HRP-Rabbit Anti-Mouse IgG (H+L) (manufactured by Zymed Laboratories, catalog no. 61-6520) and washed by the same manner as in the above operation. The membranes which were treated with primary and secondary antibodies as such were made to react with Renaissance™ (a chemiluminor reagent manufactured by Dupont NEN, catalog no. NEL-100) and photosensitized with an X-ray film to confirm the induction of heat shock protein of 70 kDa.
The result was that, by addition of cyclopentenone (20 to 30 μM), induction of heat shock protein of 70 kDa which is almost same as heat-treated at 45° C. for 10 minutes was confirmed. In Table 1, “+” indicates degree of intensity of induction and the more the numbers of “+”, the more the intensity of induction. Incidentally, “−” means that no induction was noted and “±” means the induction was slight.

[3] = tested on: vesicular stomatitis virus; conditions: cited from earlier work
Sendai virus = conditions: cited from earlier work

SMILES: O=C1C=C[C@H](O)[C@H]1O (single isomer, unassigned) [(+)-cyclopentenone]
- anti-promoter action in two-stage chemical carcinogenesis, compared with the cyclopentenone [1]: same result
- antiviral activity to adenovirus, compared with the cyclopentenone (Ad5 dlX [an adenovirus]): Same results
- induction of heat shock protein of 70 kDa, compared with the cyclopentenone [2]: Same results

SMILES: O=C1C=C[C@@H](O)[C@@H]1O (single isomer, unassigned) [(−)-cyclopentenone]
- anti-promoter action in two-stage chemical carcinogenesis, compared with the cyclopentenone [1]: same result
- antiviral activity to adenovirus, compared with the cyclopentenone (Ad5 dlX [an adenovirus]): Same results
- induction of heat shock protein of 70 kDa, compared with the cyclopentenone [2]: Same results

SMILES: O=C1C=CCC1 [2-cyclopenten-1-one]
- concentration required for inducing the HSP70 [3]: several hundred
- synthesis of HSP70 [3]: induces
- synthesis of vesicular stomatitis virus protein [3]: inhibits

SMILES: CCCCC[C@H](O)/C=C/[C@H]1C=CC(=O)[C@@H]1CCCCCCC(=O)O [prostaglandin Al, prostaglandin A1]
- synthesis of HSP70 and HSP90 (Sendai virus; animal cells infected with Sendai virus): induced
- synthesis of virus protein (Sendai virus; during the synthesis of HSP70 is induced): inhibited
